These molecules were tested against T1, 3-beta-hydroxysteroid-Delta(8),Delta(7)-isomerase (Homo sapiens, UniProt Q15125) (assay: Determination of Binding Affinity to EBP).
T1 sequence (Q15125 whole entry): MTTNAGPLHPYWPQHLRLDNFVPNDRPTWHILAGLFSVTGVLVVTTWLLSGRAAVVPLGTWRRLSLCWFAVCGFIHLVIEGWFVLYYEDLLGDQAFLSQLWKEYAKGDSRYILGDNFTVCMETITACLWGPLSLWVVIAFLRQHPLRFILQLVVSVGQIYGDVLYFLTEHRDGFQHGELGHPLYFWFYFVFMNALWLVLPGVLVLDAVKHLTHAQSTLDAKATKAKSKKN
Experimental: This binding solution was centrifuged at 400 g for 5 minutes to collect the bead/membrane mixture. After re-suspending the pellet in binding buffer at the same calculated volume with 0.01% BSA (Sigma A1933), the bead/membrane mixture was added in 384-well low-binding surface plate (PerkinElmer Cat #6057480) at 25 i/well. Radioligand at different concentrations with and without the non-radio-labeled same ligand 5 uM (for nonspecific and total signal, respectively) was added to bring final volume to 50 i/well with DMSO concentration at 0.1%. At equilibrium (3 hours after ligand addition), radiometric signal CPM was counted by using a Microbeta2 microplate counter (Perkinelmer).
Molecule `CC(C)(Cc1ccc(C(F)(F)F)cc1)CN1CCC2(C1)CS(=O)(=O)C2` [US20240400579, Example 125] has a Ki of 56 nM.

What follows are molecules tested against T1, 3-beta-hydroxysteroid-Delta(8),Delta(7)-isomerase (assay: Determination of Binding Affinity to EBP-7-Dehydrocholesterol Reductase).
Experimental: Compounds were prepared in a 96-well U bottom plate using an Echo550 machine and 10 mM compound DMSO stock solution, followed by an 8-dose 5-fold serial dilutions protocol with final testing compound concentration ranging from 0.06 to 5000 nM, with DMSO back fill to 100 nL/well and n=2. […] The UniFilter-96 GF/B plates were pre-treated by adding 50 μl/well of 0.3% (v/v) PEI to UniFilter-96 GF/B plates. The plates were sealed and incubated at 4° C. for 3 hrs. Then, the plates were washed with ice-cold assay buffer 3 times. The radioligand binding assay was prepared by adding assay buffer diluted hEBP-DHCR7 membrane at 66.7 μg/ml x 150 μl/well into the 96-well compound plate to reach 10 μg membrane per well. Then, the assay buffer diluted [3H]-Compound 118A* was added at 25 nM×50 μl/well. Following this, the plate was centrifuged at 1000 rpm for 30 secs. The plate was then sealed and agitated at 600 rpm at 22° C. for 5 min, and then incubated at 22° C. for 3 hrs. The incubation was stopped by transferring the binding solution to the pre-treated UniFilter-96 GF/B plate, vacuum filtrated, and then washed four times with ice-cold assay buffer. Following this, the plates were dried at 37° C. for 45 min. The plates were then sealed at the bottom. 40 μl/well of scintillation cocktail was added to the plates. A MicroBeta2 microplate counter was then used to read the plate and analyze the data. For reference and test compounds, the results are expressed as % Inhibition, using the normalization equation: N=100-100×(U−C2)/(C1−C2), where U is the unknown value, C1 is the average of high controls, and C2 is the average value of low controls. The IC50 was determined by fitting percentage of inhibition as a function of compound concentrations with Hill equation using XLfit.
`O=S1(=O)CC2(CCN(CCCc3ccc(C(F)(F)F)cc3)C2)C1` [US20240400579, Example 113] gave a Ki of 9.45 nM. `C[C@H](Cc1ccc(C2CCCCO2)c(Cl)c1)CN1CCC2(C1)CS(=O)(=O)C2` (stereo partly specified) [US20240400579, Example 124A] was tested, and the Ki was 18.5 nM. For `C[C@@H](Cc1ccc([C@@H]2CCCCO2)c(Cl)c1)CN1CCC2(C1)CS(=O)(=O)C2` [US20240400579, Example 124B], the Ki was 25.3 nM. `CC(C)(Cc1ccc(C(F)(F)F)cc1)CN1CCC2(C1)CS(=O)(=O)C2` [US20240400579, Example 125] gave a Ki of 4.02 nM. `O=S1(=O)CC2(CCN(CCOc3cnc(C(F)(F)F)c(Cl)c3)CC2)C1` [US20240400579, Example 242] was tested, and the Ki was 13.1 nM.

— BindingDB's records for patent US20240400579 (Genentech, 2024)
